Measured values: PubChem BioAssay (NCI)
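1) Cells in 96-well plates. 2) Compound, 48 h, 5 concentrations. 3) Linear interpolation between surrounding doses. 4) Unreached endpoint = highest concentration. GI50: concentration for 50% inhibition of growth. TGI denotes the concentration required for complete inhibition of growth.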

Tests used:
Experiment in all cases: NCI-60 cell line screen, 48 h
786-0 renal = test system: 786-0 renal
SK-MEL-2 melanoma = test system: SK-MEL-2 melanoma
NCI-H460 lung = test system: NCI-H460 lung
SNB-19 CNS = test system: SNB-19 CNS
SNB-75 CNS = test system: SNB-75 CNS
RPMI-8226 leukemia = test system: RPMI-8226 leukemia
MALME-3M melanoma = test system: MALME-3M melanoma
CCRF-CEM leukemia = test system: CCRF-CEM leukemia
NCI/ADR-RES ovarian = test system: NCI/ADR-RES ovarian
MDA-MB-435 = test system: MDA-MB-435

Cc1ccc(C(=O)NC(C)C)cc1N=NN(C)C
TGI (786-0 renal): > 100 µM
TGI (SK-MEL-2 melanoma): > 100 µM
TGI (NCI-H460 lung): > 100 µM
TGI (SNB-19 CNS): > 100 µM

O=C(Cc1nc2ccccc2s1)C(=O)Nc1ccc(Cl)cc1Cl
TGI (SNB-75 CNS): > 100 µM
TGI (RPMI-8226 leukemia): > 100 µM
TGI (786-0 renal): > 100 µM
TGI (SK-MEL-2 melanoma): > 100 µM
TGI (NCI-H460 lung): > 100 µM
TGI (SNB-19 CNS): > 100 µM
TGI (MALME-3M melanoma): > 100 µM

CC(C)(C)[Si](Nc1ccccc1)(c1ccccc1)c1ccccc1
TGI (SNB-75 CNS): 24.5 µM
TGI (RPMI-8226 leukemia): 44.1 µM
TGI (786-0 renal): 28.4 µM
TGI (SK-MEL-2 melanoma): 35.8 µM
TGI (NCI-H460 lung): 37.7 µM
TGI (SNB-19 CNS): 27.1 µM
TGI (MALME-3M melanoma): 41.8 µM
TGI (CCRF-CEM leukemia): 39.7 µM

CC(C)[C@H](O)C(=O)N[C@H]1Cc2ccc3c(c2)[C@]24C5=C(N=C(O5)[C@H](C(C)C)NC1=O)c1nc(Cl)c(o1)-c1c(Cl)[nH]c5cccc(c15)-c1cccc2c1N[C@H]4O3
GI50 (786-0 renal): 0.00279 µM
TGI (786-0 renal): 2.77 µM
TGI (NCI/ADR-RES ovarian): 3.22 µM
GI50 (NCI-H460 lung): < 0.001 µM
TGI (NCI-H460 lung): 1.21 µM
GI50 (SNB-19 CNS): < 0.001 µM
TGI (MALME-3M melanoma): 0.0526 µM
TGI (CCRF-CEM leukemia): 0.0277 µM

O=C(Cc1ccccc1)NN1C(=O)C(Cl)C1c1ccccc1 (stereo not given)
TGI (SNB-75 CNS): > 100 µM
TGI (RPMI-8226 leukemia): 52.8 µM
TGI (786-0 renal): > 100 µM
TGI (SK-MEL-2 melanoma): > 100 µM
TGI (NCI-H460 lung): > 100 µM
TGI (SNB-19 CNS): > 100 µM
TGI (MALME-3M melanoma): > 100 µM
TGI (CCRF-CEM leukemia): 71.4 µM

COC(=O)NN=C1C(C)(C)C(=NNC(=O)OC)C1(C)C
TGI (SNB-75 CNS): > 100 µM
TGI (786-0 renal): > 100 µM
TGI (SK-MEL-2 melanoma): > 100 µM
TGI (NCI-H460 lung): > 100 µM
TGI (SNB-19 CNS): > 100 µM
TGI (MALME-3M melanoma): > 100 µM
TGI (CCRF-CEM leukemia): > 72.3 µM

CN(C)NC(=S)NC12CC3CC(CC(C3)C1)C2
TGI (SNB-75 CNS): > 100 µM
TGI (786-0 renal): > 100 µM
TGI (SK-MEL-2 melanoma): > 100 µM
TGI (NCI-H460 lung): > 100 µM
TGI (SNB-19 CNS): > 100 µM
TGI (MALME-3M melanoma): > 100 µM
TGI (CCRF-CEM leukemia): > 100 µM

CCOC(CN(C)C(=O)OCC(Cl)(Cl)Cl)OCC
TGI (SNB-75 CNS): > 100 µM
TGI (786-0 renal): > 100 µM
TGI (NCI/ADR-RES ovarian): > 100 µM
TGI (NCI-H460 lung): > 100 µM
TGI (MDA-MB-435): > 100 µM
TGI (SNB-19 CNS): > 100 µM
TGI (CCRF-CEM leukemia): > 100 µM

C[n+]1ccc2[nH]c3ccccc3c2c1
TGI (SNB-75 CNS): > 100 µM
TGI (RPMI-8226 leukemia): > 100 µM
TGI (786-0 renal): > 100 µM
TGI (SK-MEL-2 melanoma): > 100 µM
TGI (NCI-H460 lung): > 100 µM
TGI (SNB-19 CNS): > 100 µM
TGI (MALME-3M melanoma): 99.4 µM
TGI (CCRF-CEM leukemia): > 100 µM

CCCCCC/C=C/CCCCCCCc1cccc(O)c1C(=O)O
TGI (SNB-75 CNS): > 100 µM
TGI (RPMI-8226 leukemia): > 100 µM
TGI (786-0 renal): > 100 µM
TGI (SK-MEL-2 melanoma): > 100 µM
TGI (NCI-H460 lung): > 100 µM
TGI (SNB-19 CNS): > 100 µM
TGI (MALME-3M melanoma): > 100 µM
TGI (CCRF-CEM leukemia): > 100 µM

O=C(Nc1cc([N+](=O)[O-])cc([N+](=O)[O-])c1)OC1C2CCC1C1OC1C2 (stereo not given)
TGI (SNB-75 CNS): > 50 µM
TGI (RPMI-8226 leukemia): > 50 µM
TGI (786-0 renal): > 50 µM
TGI (SK-MEL-2 melanoma): > 50 µM
TGI (NCI-H460 lung): > 50 µM
TGI (SNB-19 CNS): > 50 µM
TGI (MALME-3M melanoma): > 50 µM
TGI (CCRF-CEM leukemia): > 50 µM

CCC[CH2][Sn]1([CH2]CCC)[O]CC([CH2][Sn]([c]2ccccc2)([c]2ccccc2)[c]2ccccc2)[O]1 (stereo not given)
GI50 (SNB-75 CNS): 6.49 µM
TGI (SNB-75 CNS): 20.2 µM
GI50 (RPMI-8226 leukemia): 2.85 µM
TGI (RPMI-8226 leukemia): 18.7 µM
GI50 (786-0 renal): 11.8 µM
TGI (786-0 renal): 24.5 µM
GI50 (SK-MEL-2 melanoma): 10.9 µM
TGI (SK-MEL-2 melanoma): 23.4 µM
GI50 (SNB-19 CNS): 15.1 µM
TGI (SNB-19 CNS): 28.6 µM
GI50 (MALME-3M melanoma): 13.6 µM
TGI (MALME-3M melanoma): 26.4 µM
GI50 (CCRF-CEM leukemia): 2.26 µM
TGI (CCRF-CEM leukemia): 20.8 µM

CN(/C(=N\O)c1ccccc1)c1ccccc1
TGI (SNB-75 CNS): 40.8 µM
TGI (786-0 renal): 89 µM
TGI (SK-MEL-2 melanoma): 70.1 µM
TGI (NCI-H460 lung): > 100 µM
TGI (SNB-19 CNS): 90.3 µM
TGI (MALME-3M melanoma): 84.1 µM
